In patent publication US10888544B2, “Methods for treating Gaucher disease” (Genzyme Corporation, priority 2017, dated 2021):
Where “and” joins values, the source holds several entries; their conditions need not be identical. Equal values may be shown once. Read-outs that look alike come from different tables or passages of the source.

Experiment: Single oral dose pharmacokinetic study of eliglustat tartrate in mild or moderate hepatic impairment and matched healthy subjects (Example 1)
Type: in vivo, human
Conditions: for AUC(0-inf) / AUC(0-t) / Cmax / Vd/F / Tmax: human, 100 mg
Protocol: A multi-center, open-label, single oral dose study of eliglustat tartrate administered to mild or moderate HI and normal hepatic function (healthy) matched (by body weight and cytochrome P450 [CYP] 2D6 phenotype) subjects was carried out to study the effect of mild and moderate hepatic impairment (HI) on the pharmacokinetics (PK) of eliglustat.
Approximately 8 subjects were planned to be enrolled into each HI group (mild or moderate HI) and 8 subjects with normal hepatic function matched to impaired subjects by weight and CYP2D6 phenotype. At least 6 CYP2D6 extensive metabolizers (EMs) were to be enrolled into each impairment group, with the remaining 2 subjects enrolled according to the following preference: at least 20 subjects were to be screened for each impairment group and if identified, up to 2 CYP2D6 poor metabolizers (PMs) were enrolled. If less than 2 PMs were identified, up to 2 CYP2D6 intermediate metabolizers (IMs) were to be enrolled for a total of 8 subjects per group. If less than 2 PMs or IMs were identified, up to 2 additional EMs were to be enrolled for a total of 8 subjects per group. If 2 PMs were identified prior to screening 20 subjects, screening may have been discontinued. If an eligible PM subject was identified after satisfying the above requirements and enrolling 8 subjects for an impairment group, this subject may still have been enrolled for that impairment group.
CYP2D6 EMs and IMs were to receive a single 100-mg dose of eliglustat tartrate, while CYP2D6 PMs were to receive a single 50-mg dose of eliglustat tartrate.
For HI subjects: Male (body weight between 50.0 and 125.0 kg, inclusive) or female subjects (body weight between 40.0 and 110.0 kg, inclusive) between 18 and 79 years, inclusive, with a body mass index between 18.0 and 37 kg/m^2, inclusive; having stable chronic liver disease assessed by medical history, physical examination, and laboratory values; with moderate HI (defined as Child-Pugh score of 7 to 9, inclusive) or mild HI (defined as Child-Pugh score of 5 to 6, inclusive). For healthy subjects: Male or female subjects, between 18 and 79 years, inclusive; body weight within 15% of the body weight of matched subjects with HI, and body mass index between 18.0 and 37 kg/m^2, inclusive; healthy subjects were also matched to HI groups by CYP2D6 phenotype predicted from genotype.
A single 100-mg capsule of eliglustat tartrate (equivalent to 84 mg of eliglustat) was administered to CYP2D6 EM or IM subjects with mild or moderate HI and matching healthy subjects.
Pharmacokinetics: The following PK parameters were calculated for eliglustat plasma concentrations using noncompartmental methods: Maximum plasma concentration observed (Cmax), area under the plasma concentration versus time curve calculated using the trapezoidal method from time zero to the time corresponding to the last quantifiable concentration tlast (AUClast), time to reach Cmax(tmax), area under the plasma concentration versus time curve extrapolated to infinity (AUC), terminal half-life associated with the terminal slope λz (t1/2z), time corresponding to the last concentration above the limit of quantification (tlast), apparent total body clearance of a drug from the plasma (CL/F), and apparent volume of distribution during the terminal (λz) phase (Vz/F).
Blood samples were collected at the following timepoints to assess plasma concentrations of eliglustat: predose and 0.5, 1, 1.5, 2, 2.5, 3, 4, 6, 8, 10, 12, 24, 36, and 48 hours postdose.
Eliglustat concentrations in plasma were determined using a validated liquid chromatography-tandem mass spectrometry method with a lower limit of quantification of 0.2 ng/mL.
Eliglustat PK parameters were summarized using descriptive statistics for each population group and for each CYP2D6 phenotype. […]

[1] = CYP2D6 EM, healthy, N=7, single 100 mg eliglustat tartrate oral, plasma
[2] = CYP2D6 EM, mild HI, N=6, single 100 mg eliglustat tartrate oral, plasma
[3] = CYP2D6 EM, moderate HI, N=7, single 100 mg eliglustat tartrate oral, plasma
[4] = CYP2D6 IM, healthy, N=1, single 100 mg eliglustat tartrate oral, plasma
[5] = CYP2D6 IM, mild HI, N=2, single 100 mg eliglustat tartrate oral, plasma
[6] = CYP2D6 IM, moderate HI, N=1, single 100 mg eliglustat tartrate oral, plasma
[7] = Mild HI vs Healthy, CYP2D6 EM subjects, single 100 mg eliglustat tartrate
[8] = Moderate HI vs Healthy, CYP2D6 EM subjects, single 100 mg eliglustat tartrate

CCCCCCCC(=O)N[C@H](CN1CCCC1)[C@H](O)c1ccc2c(c1)OCCO2 [eliglustat, N-((1R,2R)-1-(2,3-dihydrobenzo[b][1,4]dioxin-6-yl)-1-hydroxy-3-(pyrrolidin-1-yl)propan-2-yl)octanamide]
CL/F, geometric mean [1]: (1420) [40.1] L/h | CL/F, mean ± SD [1]: 1570 ± 628 L/h | t1/2z, geometric mean [1]: (7.03) [12.5] h | t1/2z, mean ± SD [1]: 7.08 h and 7.08 ± 0.881 h | tlast, median [1]: 24.00 h | CL/F, geometric mean [2]: (1230) [72.8]^ L/h | CL/F, mean ± SD [2]: 1980 ± 1440 L/h | t1/2z, geometric mean [2]: (7.13) [20.1] h | t1/2z, mean ± SD [2]: 7.25 ± 1.46 h | tlast, median [2]: 30.00 h | CL/F, geometric mean [3]: (275) [70.9] L/h | CL/F, mean ± SD [3]: 416 ± 295 L/h | t1/2z, geometric mean [3]: (10.3) [21.4]^ h | t1/2z, mean ± SD [3]: 10.5 h and 10.5 ± 2.25 h | tlast, median [3]: 48.00 h | CL/F [4]: 146 L/h | t1/2z [4]: 8.48 h | tlast [4]: 48.00 h | CL/F, mean [5]: 306 L/h | t1/2z, mean [5]: 9.34 h | tlast [5]: 48.00 h | CL/F [6]: 406 L/h | t1/2z [6]: 5.87 h | tlast [6]: 24.00 h | AUC geometric mean ratio, point estimate [7]: 1.15 | AUClast geometric mean ratio, point estimate [7]: 1.18 | CL/F geometric mean ratio, point estimate [7]: 0.87 | Cmax geometric mean ratio, point estimate [7]: 1.22 | Vz/F geometric mean ratio, point estimate [7]: 0.88 | AUC geometric mean ratio, point estimate [8]: 5.16 | AUClast geometric mean ratio, point estimate [8]: 5.35 | CL/F geometric mean ratio, point estimate [8]: 0.19 | Cmax geometric mean ratio, point estimate [8]: 2.81 | Vz/F geometric mean ratio, point estimate [8]: 0.28 | t1/2z geometric mean ratio, point estimate [8]: 1.47 | AUC(0-inf) (both sexes, plasma, oral, CYP2D6 IM, healthy, N=1, single 100 mg eliglustat tartrate oral, plasma, read-out: AUC (extrapolated to infinity)): 578 ng·h/mL | AUC(0-inf) (both sexes, plasma, oral, CYP2D6 IM, mild HI, N=2, single 100 mg eliglustat tartrate oral, plasma, read-out: AUC (extrapolated to infinity), mean): 346 ng·h/mL | AUC(0-t) (both sexes, plasma, oral, CYP2D6 IM, mild HI, N=2, single 100 mg eliglustat tartrate oral, plasma, read-out: AUClast, mean): 334 ng·h/mL | Cmax (both sexes, plasma, oral, CYP2D6 IM, mild HI, N=2, single 100 mg eliglustat tartrate oral, plasma, read-out: Cmax, mean): 35.9 ng/mL | Vd/F (both sexes, plasma, oral, CYP2D6 IM, mild HI, N=2, single 100 mg eliglustat tartrate oral, plasma, read-out: Vz/F, mean): 3910 L | Tmax (both sexes, plasma, oral, CYP2D6 IM, mild HI, N=2, single 100 mg eliglustat tartrate oral, plasma, read-out: tmax): 2 h | AUC(0-inf) (both sexes, plasma, oral, CYP2D6 IM, moderate HI, N=1, single 100 mg eliglustat tartrate oral, plasma, read-out: AUC (extrapolated to infinity)): 208 ng·h/mL | AUC(0-inf) (both sexes, plasma, po, CYP2D6 EM, healthy, N=7, single 100 mg eliglustat tartrate oral, plasma, read-out: AUC (extrapolated to infinity), geometric mean): 59.5 ng·h/mL | AUC(0-inf) (both sexes, plasma, po, CYP2D6 EM, healthy, N=7, single 100 mg eliglustat tartrate oral, plasma, read-out: AUC (extrapolated to infinity), mean ± SD): 69 ± 49.1 ng·h/mL | AUC(0-t) (both sexes, plasma, po, CYP2D6 EM, healthy, N=7, single 100 mg eliglustat tartrate oral, plasma, read-out: AUClast, geometric mean): 54.7 ng·h/mL | AUC(0-t) (both sexes, plasma, po, CYP2D6 EM, healthy, N=7, single 100 mg eliglustat tartrate oral, plasma, read-out: AUClast, mean ± SD): 63.9 ± 47.1 ng·h/mL | Cmax (both sexes, plasma, po, CYP2D6 EM, healthy, N=7, single 100 mg eliglustat tartrate oral, plasma, read-out: Cmax, geometric mean): 8.81 ng/mL | Cmax (both sexes, plasma, po, CYP2D6 EM, healthy, N=7, single 100 mg eliglustat tartrate oral, plasma, read-out: Cmax, mean ± SD): 10.4 ± 7.4 ng/mL | Vd/F (both sexes, plasma, po, CYP2D6 EM, healthy, N=7, single 100 mg eliglustat tartrate oral, plasma, read-out: Vz/F, geometric mean): 14400 L | Vd/F (both sexes, plasma, po, CYP2D6 EM, healthy, N=7, single 100 mg eliglustat tartrate oral, plasma, read-out: Vz/F, mean ± SD): 16000 ± 6020 L | Tmax (both sexes, plasma, po, CYP2D6 EM, healthy, N=7, single 100 mg eliglustat tartrate oral, plasma, read-out: tmax, median): 2.5 h | AUC(0-inf) (both sexes, plasma, po, CYP2D6 EM, mild HI, N=6, single 100 mg eliglustat tartrate oral, plasma, read-out: AUC (extrapolated to infinity), geometric mean): 68.5 ng·h/mL | AUC(0-inf) (both sexes, plasma, po, CYP2D6 EM, mild HI, N=6, single 100 mg eliglustat tartrate oral, plasma, read-out: AUC (extrapolated to infinity), mean ± SD): 172 ± 293 ng·h/mL | AUC(0-t) (both sexes, plasma, po, CYP2D6 EM, mild HI, N=6, single 100 mg eliglustat tartrate oral, plasma, read-out: AUClast, geometric mean): 64.3 ng·h/mL | AUC(0-t) (both sexes, plasma, po, CYP2D6 EM, mild HI, N=6, single 100 mg eliglustat tartrate oral, plasma, read-out: AUClast, mean ± SD): 166 ± 285 ng·h/mL | Cmax (both sexes, plasma, po, CYP2D6 EM, mild HI, N=6, single 100 mg eliglustat tartrate oral, plasma, read-out: Cmax, geometric mean): 10.7 ng/mL | Cmax (both sexes, plasma, po, CYP2D6 EM, mild HI, N=6, single 100 mg eliglustat tartrate oral, plasma, read-out: Cmax, mean ± SD): 22.4 ± 30.2 ng/mL | Vd/F (both sexes, plasma, po, CYP2D6 EM, mild HI, N=6, single 100 mg eliglustat tartrate oral, plasma, read-out: Vz/F, geometric mean): 12700 L | Vd/F (both sexes, plasma, po, CYP2D6 EM, mild HI, N=6, single 100 mg eliglustat tartrate oral, plasma, read-out: Vz/F, mean ± SD): 20000 ± 15600 L | Tmax (both sexes, plasma, po, CYP2D6 EM, mild HI, N=6, single 100 mg eliglustat tartrate oral, plasma, read-out: tmax, median): 1.75 h | AUC(0-inf) (both sexes, plasma, po, CYP2D6 EM, moderate HI, N=7, single 100 mg eliglustat tartrate oral, plasma, read-out: AUC (extrapolated to infinity), geometric mean): 307 ng·h/mL | AUC(0-inf) (both sexes, plasma, po, CYP2D6 EM, moderate HI, N=7, single 100 mg eliglustat tartrate oral, plasma, read-out: AUC (extrapolated to infinity), mean ± SD): 575 ± 696 ng·h/mL | AUC(0-t) (both sexes, plasma, po, CYP2D6 EM, moderate HI, N=7, single 100 mg eliglustat tartrate oral, plasma, read-out: AUClast, geometric mean): 293 ng·h/mL | AUC(0-t) (both sexes, plasma, po, CYP2D6 EM, moderate HI, N=7, single 100 mg eliglustat tartrate oral, plasma, read-out: AUClast, mean ± SD): 536 ± 642 ng·h/mL | Cmax (both sexes, plasma, po, CYP2D6 EM, moderate HI, N=7, single 100 mg eliglustat tartrate oral, plasma, read-out: Cmax, geometric mean): 24.8 ng/mL | Cmax (both sexes, plasma, po, CYP2D6 EM, moderate HI, N=7, single 100 mg eliglustat tartrate oral, plasma, read-out: Cmax, mean ± SD): 39.5 ± 43.4 ng/mL | Vd/F (both sexes, plasma, po, CYP2D6 EM, moderate HI, N=7, single 100 mg eliglustat tartrate oral, plasma, read-out: Vz/F, geometric mean): 4090 L | Vd/F (both sexes, plasma, po, CYP2D6 EM, moderate HI, N=7, single 100 mg eliglustat tartrate oral, plasma, read-out: Vz/F, mean ± SD): 5840 ± 4130 L | Tmax (both sexes, plasma, po, CYP2D6 EM, moderate HI, N=7, single 100 mg eliglustat tartrate oral, plasma, read-out: tmax, median): 4 h | AUC(0-t) (plasma, oral, CYP2D6 IM, healthy, N=1, single 100 mg eliglustat tartrate oral, plasma, read-out: AUClast): 568 ng·h/mL | Cmax (plasma, oral, CYP2D6 IM, healthy, N=1, single 100 mg eliglustat tartrate oral, plasma, read-out: Cmax): 75.9 ng/mL | Vd/F (plasma, oral, CYP2D6 IM, healthy, N=1, single 100 mg eliglustat tartrate oral, plasma, read-out: Vz/F): 1790 L | Tmax (plasma, oral, CYP2D6 IM, healthy, N=1, single 100 mg eliglustat tartrate oral, plasma, read-out: tmax): 2.5 h | AUC(0-t) (plasma, oral, CYP2D6 IM, moderate HI, N=1, single 100 mg eliglustat tartrate oral, plasma, read-out: AUClast): 197 ng·h/mL | Cmax (plasma, oral, CYP2D6 IM, moderate HI, N=1, single 100 mg eliglustat tartrate oral, plasma, read-out: Cmax): 35.6 ng/mL | Vd/F (plasma, oral, CYP2D6 IM, moderate HI, N=1, single 100 mg eliglustat tartrate oral, plasma, read-out: Vz/F): 3430 L | Tmax (plasma, oral, CYP2D6 IM, moderate HI, N=1, single 100 mg eliglustat tartrate oral, plasma, read-out: tmax): 1.52 h
